How the values were obtained:
Experiment in all cases: Cell proliferation inhibition experiment, CellTiter-Glo (CTG) method
Type in all cases: cell-based
[1] = test system: PC-9; details: Homo sapiens, PC-9, 72 h, PC-9 cells, 3 days
Outline: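 Cells in log-phase growth (viability above 90% by trypan blue) were seeded at 90 μL per well in black-walled, clear-bottom 96-well plates and incubated overnight at 37° C., 5% CO2. A T0 plate was read the next day. Test compounds were added at nine concentrations in triplicate with a solvent control. Viability was measured by CellTiter-Glo luminescence on EnVision, and IC50 came from non-linear S-curve fitting in GraphPad Prism 5.0.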

[2] = test system: NCI-H1975; details: for IC50: Homo sapiens, NCI-H1975, 72 h, NCI-H1975 cells, CTG, 3 days; for A-431/NCI-H1975 Selectivity: ratio of A-431 IC50 to NCI-H1975 IC50
Outline: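 NCI-H1975 cells with viability above 90% by trypan blue were seeded at 90 μL per well in black 96-well plates and incubated overnight at 37° C., 5% CO2. Compounds were added at nine concentrations in triplicate, and viability was measured with CellTiter-Glo luminescence on EnVision. IC50 came from non-linear S-curve fitting in GraphPad Prism 5.0.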

[3] = test system: A-431; details: Homo sapiens, A-431, 72 h, A-431 cells, 3 days
Outline: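 CTG luminescence measured after 3-day compound exposure, with a T0 plate read the day after seeding and solvent wells as control. Nine concentrations, 3-fold steps, in triplicate: A-431 from 30 μM, NCI-H1975 and PC-9 from 1.111 μM. IC50 derived by non-linear S-curve regression.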

| SMILES | IC50 [1] | IC50 [2] | A-431/NCI-H1975 Selectivity [2] | IC50 [3] |
| --- | --- | --- | --- | --- |
| C=CC(=O)Nc1cc(Nc2cc(-c3ccc4c(cnn4C)c3)ncn2)c(OC)cc1N1CCN(CC)CC1 [compound 18] | 8.9 nM | 11.1 nM | 88.8 | 983 nM |
| C=CC(=O)Nc1cc(Nc2cc(-c3ccc4c(cnn4C)c3)ncn2)c(OC)cc1N1CCN(C2CCN(C(C)=O)CC2)CC1 [compound 134] | 31.1 nM | 33.8 nM | 42.4 | 1430 nM |
| C=CC(=O)Nc1c(N(C)CCN(C)C(C)C)cc(OC)c(Nc2cc(-c3ccc4c(cnn4C)c3)ncn2)c1F [compound 197] | 13.4 nM | 20.7 nM | 65.1 | 1350 nM |
| C=CC(=O)Nc1cc(Nc2cc(-c3cc(C(F)(F)F)c4c(cnn4C)c3)ncn2)c(OC)cc1N(C)CCN(C)C [compound 4] | 10.1 nM | 15.1 nM | 34.0 | 514 nM |
| C=CC(=O)Nc1cc(Nc2cc(-c3ccc4cnn(C)c4c3)ncn2)c(OC(F)F)cc1N1C[C@@H](C)C(N)[C@@H](C)C1 (stereo partly shown) [compound 160] | 32.7 nM | 39.2 nM | 53.0 | 2080 nM |
| C=CC(=O)Nc1cc(Nc2nccc(-c3ccc4c(cnn4C)c3)n2)c(OC)cc1OCCN(C)C [compound 237] | 44.5 nM | 21.7 nM | 84.1 | 1820 nM |
| C=CC(=O)Nc1c(N(C)CCN(C)C)cc(OC)c(Nc2cc(-c3ccc4c(cnn4C)c3)ncn2)c1F [compound 13] | 8.6 nM | 1.8 nM |  | 770 nM |
| C=CC(=O)Nc1cc(Nc2cc(-c3ccc4c(cnn4C)c3)ncn2)c(OC)cc1N1CCN(CC(=O)N(C)C)CC1 [compound 136] | 45.6 nM | 56.2 nM | 41.1 | 2300 nM |
| C=CC(=O)Nc1cc(Nc2cc(-c3ccc4c(cnn4C)c3)ncn2)c(OC)cc1N1CCC2(CC1)COC2 [compound 107] | 17.8 nM | 16.5 nM | 78.2 | 1290 nM |
| C=CC(=O)Nc1cc(Nc2nccc(-c3ccc4c(cnn4C)c3)n2)c(OC(F)F)cc1N(C)CCN1CCN(C)CC1 [compound 245] | 70.7 nM | 61.6 nM | 38.6 | 2380 nM |
| C=CC(=O)Nc1cc(Nc2cc(-c3ccc4cnn(C)c4c3)ncn2)c(OC)cc1N1C[C@@H](C)N(C)[C@@H](C)C1 [compound 154] | 36.4 nM | 34.7 nM |  | 1400 nM |
| C=CC(=O)Nc1cc(Nc2nccc(-c3ccc4cnn(C)c4c3)n2)c(OC(F)F)cc1N(C)CCN(C)C [compound 177] | 23.5 nM | 19 nM | 77.3 | 1470 nM |
| C=CC(=O)Nc1cc(Nc2nccc(-c3ccc4c(cnn4C)c3)n2)c(OC)cc1N1CCN(C2CCOCC2)CC1 [compound 235] | 24.9 nM | 94 nM | 25.5 | 2400 nM |
| C=CC(=O)Nc1cc(Nc2cc(-c3ccc4c(cnn4C)c3)ncn2)c(OC)cc1OCCN1CCCCC1 [compound 189] | 24.1 nM | 109 nM | 24.3 | 2640 nM |
| C=CC(=O)Nc1cc(Nc2cc(-c3ccc4cnn(C)c4c3)ncn2)c(OC(F)F)cc1N1CCC(N2C[C@@H](C)N(C)[C@@H](C)C2)CC1 [compound 163] | 13.8 nM | 18.5 nM | 45.1 | 834 nM |
| C=CC(=O)Nc1cc(Nc2cc(-c3cc4cnn(C)c4cc3F)ncn2)c(OC)cc1N(C)CCN(C)C [compound 5] | 3.9 nM | 5.6 nM |  | 302 nM |

| SMILES | IC50 [1] | IC50 [2] | A-431/NCI-H1975 Selectivity [2] | IC50 [3] |
| --- | --- | --- | --- | --- |
| C=CC(=O)Nc1cc(Nc2cc(-c3ccc4cnn(C)c4c3)ncn2)c(OC)cc1N1CCC(N2C[C@@H](C)N(C)[C@@H](C)C2)CC1 [compound 156] | 2.7 nM | 25.1 nM | 49.5 | 1240 nM |
| C=CC(=O)Nc1cc(Nc2cc(-c3ccc4c(cnn4C)c3)ncn2)c(OC)cc1N(C)CCN(C)CC [compound 88] | 7.2 nM | 6.1 nM | 161.8 | 987 nM |
| C=CC(=O)Nc1cc(Nc2cc(-c3ccc4c(cnn4C)c3)ncn2)c(OCC)cc1N(C)CCN(C)C(C)C [compound 139] | 57.9 nM | 43.1 nM | 26.8 | 1160 nM |
| C=CC(=O)Nc1cc(Nc2cc(-c3ccc4cnn(C)c4c3)ncn2)c(OC)cc1N1CCN(C2CCC(OC)C2)CC1 (stereo not shown) [compound 217] | 13.6 nM | 16.9 nM | 82.8 | 1400 nM |
| C=CC(=O)Nc1cc(Nc2cc(-c3ccc4c(cnn4C)c3)ncn2)c(OC(F)F)cc1N1C[C@@H](C)N(C)[C@@H](C)C1 [compound 97] | 22.6 nM | 33.1 nM | 24.1 | 798 nM |
| C=CC(=O)Nc1cc(Nc2cc(-c3ccc4c(c3)ncn4C)ncn2)c(OC)cc1N(C)CCN1CCN(C(C)=O)CC1 [compound 130] | 43.2 nM | 56.6 nM | 40.9 | 2310 nM |
| C=CC(=O)Nc1cc(Nc2nccc(-c3ccc4cnn(C(C)C)c4c3)n2)c(OC)cc1N(C)CCN(C)C [compound 17] | 16.9 nM | 22.2 nM | 56.2 | 1250 nM |
| C=CC(=O)Nc1cc(Nc2cc(-c3ccc4c(cnn4C)c3)ncn2)c(OC)cc1N(C)C1CCN(CC)CC1 [compound 226] | 54.6 nM | 68.2 nM | 35.0 | 2390 nM |
| C=CC(=O)Nc1cc(Nc2cc(-c3ccc4c(cnn4C)c3)ncn2)c(OC)cc1N1CCN(C(C)(C)CO)CC1 [compound 268] | 15.6 nM | 27.1 nM | 62.7 | 1700 nM |
| C=CC(=O)Nc1cc(Nc2cc(-c3ccc4c(cnn4C)c3)ncn2)c(OCC)cc1N1C[C@@H](C)N(C)[C@@H](C)C1 [compound 90] | 15.5 nM | 26.5 nM | 66.2 | 1750 nM |
| C=CC(=O)Nc1cc(Nc2cc(-c3ccc4c(cnn4C)c3)ncn2)c(OC)cc1N1CCC(N2CCC(OC)CC2)CC1 [compound 204] | 15.8 nM | 15.7 nM | 56.7 | 891 nM |
| C=CC(=O)Nc1cc(Nc2cc(-c3ccc4c(cnn4C)c3)ncn2)c(OCC)cc1N(C)CCN(CC)CC [compound 93] | 18.5 nM | 20.5 nM | 41.7 | 854 nM |
| C=CC(=O)Nc1cc(Nc2cc(-c3ccc4ncsc4c3)ncn2)c(OC)cc1N(C)CCN(C)C [compound 63] | 6.5 nM | 4.1 nM | 130.7 | 540 nM |
| C=CC(=O)Nc1cc(Nc2cc(-c3ccc4cnn(C)c4c3)ncn2)c(OC)cc1N(C)C1CCN(CCOC)CC1 [compound 225] | 67.2 nM | 75.1 nM | 32.9 | 2470 nM |
| C=CC(=O)Nc1cc(Nc2nccc(-c3ccc4c(cnn4C)c3)n2)c(OC)cc1N1CCC(N2CCN(C(C)C)CC2)CC1 [compound 234] | 32.7 nM | 80.1 nM | 30.7 | 2460 nM |

Source: patent publication US11352352B2, “Aminopyrimidine compound, preparation method therefor and use thereof” (BEIJING ADAMADLE BIOTECHNOLOGY LIMITED LIABILITY COMPANY, priority 2017, dated 2022)
